Assay results taken from patent US6818631B1, “Fungicidal pyrimidine derivatives” (Nippon Soda Co. Ltd., priority 2003, dated 2004).

melting point | SMILES
128 to 129 °C | C#CCOc1nc(-n2ccnc2)c(I)c(C(F)(F)F)n1 [Example 13, 4-Imidazol-1-yl-5-iodo-2-prop-2-ynyloxy-6-trifluoromethyl-pyrimidine]
195 to 197 °C | O=C1CCCN1c1nc(-n2ccnc2)c(I)c(C(F)(F)F)n1 [Example 14, 1-(4-Imidazol-1-yl-5-iodo-6-trifluoromethylpyrimidin-2-yl)-pyrrolidin-2-one]
196 to 200 °C | CSc1nc(-c2nn[nH]n2)c(I)c(C(F)(F)F)n1 [Example 15, 5-Iodo-2-methylthio-4-(2H-tetrazol-5-yl)-6-trifluoromethyl-pyrimidine]
121 to 122 °C | C#Cc1c(-n2ccnc2)nc(C)nc1C(F)(F)F [Example 18, 5-Ethynyl-4-imidazol-1-yl-2-methyl-6-trifluoromethylpyrimidine]
142 to 150 °C (dec.) | Fc1c(-n2ccnc2)nc(-n2ccnc2)nc1C(F)(F)F [Example 19, 5-Fluoro-2,4-diimidazol-1-yl-6-trifluoromethylpyrimidine]
